Several values for one entry are separate records, joined by “and”; a condition that tells them apart may be missing. Identical values can stand only once. Positions of bridges follow the written chain, without caps; N, C: chain ends. No end group written: not given here.
How the values were obtained:
[1] = test system: same cryptdin peptide immobilized on a CM5 sensor chip; test: surface plasmon resonance self-association of cryptdins; format: binding, mouse; settings: 15.6-2,000 nM analyte over 400 to 500 RU of the same peptide on CM5 chip, 25°C, 10 mM HEPES, 150 mM NaCl, 3 mM EDTA, surfactant P20, pH 7.4; additional 150 mM NaCl for Crp1 and Crp11; Kd unattainable
Method: We examined Crp1, Crp4, Crp11, and Crp14 for their ability to self-associate at 25°C in 10 mM HEPES, 150 mM NaCl, 3 mM EDTA, 0.005% surfactant P20 (pH 7.4) using surface plasmon resonance (SPR) techniques. […] Due to the heterogenetic nature of defensin self-association and the lack of an appropriate mathematic model for data analysis, an accurate measurement of thermodynamic parameters such as Kd was unattainable.
FIG 10 Representative association and dissociation kinetics of cryptdins analyzed by surface plasmon resonance. Cryptdins in a 2-fold dilution series at concentrations ranging from 15.625 to 2000 nM were analyzed on self-immobilized sensor chips with resonance units (RUs) of 404 for Crp1 (A), 541 for Crp4 (B), 458 for Crp11 (C), 488 for Crp14 (D). To suppress nonspecific electrostatic interactions, an additional 150 mM NaCl was added to the running buffer for Crp1 and Crp11.
Surface plasmon resonance (SPR) experiments were performed, as described previously ([80]), on a BIAcore T200 system, at 25°C, in HBS-EP buffer (10 mM HEPES, 150 mM NaCl, 3 mM EDTA, […] surfactant P20 [pH 7.4]), with or without additional 150 mM NaCl. […] Analytes in a 2-fold dilution series at concentrations varying from 15.625 to 2,000 nM were injected into the flow cells at 30 μL/min in the running buffer, and association and dissociation assessed for 5 and 10 min, respectively. […]

[2] = test system: S. aureus ATCC 29213; test: virtual colony count (vCC) bactericidal assay, S. aureus; format: cell-based, Staphylococcus aureus
Method: (§1) All cryptdins were subjected to a virtual colony count assay (vCC) we have previously developed ([67]), in which E. coli ATCC 25922 and S. aureus ATCC 29213 are exposed to a 2-fold serial dilution of cryptdin for 2 h in 10 mM sodium phosphate buffer (pH 7.4), before bacterial growth in the presence of Mueller-Hinton broth is monitored spectrophotometrically at 650 nm for a period of 12 h. The dose-dependent killing of E. coli and S. aureus by all 17 cryptdins is shown as bacterial survival curves in Fig. 6. The virtual lethal doses (vLDs) of cryptdins at 50%, 10%, 1% and 0.1% bacterial survival (or the vLD50, vLD90, vLD99, and vLD99.9 values) are tabulated in Table 1. The bactericidal activity of the Crp1 subclass of cryptdins is highly variable despite a high degree of sequence identity, with Crp1, Crp6, Crp11, and Crp16 being the weakest against both strains and Crp3, Crp8 to Crp10, Crp13, Crp14, and Crp17 being the strongest. The vLD50, vLD90, vLD99 and vLD99.9 values for Crp11 to E. coli differ from those for Crp14 by 3.4-, 7.0-, 11.8-, and 12.7-fold, respectively; for comparison, the vLD values for Crp11 to S. aureus are 3.1-, 5.0-, 6.8-, and 8.1-fold versus those for Crp10, respectively. Overall, S. aureus appears more susceptible to cryptdin killing than E. coli.
(§2) Antimicrobial assays against E. coli ATCC 25922 and S. aureus ATCC 29213 were conducted using a published 96-well turbidimetric method called “virtual colony count” ([67]). Briefly, a 2-fold dilution series of cryptdin, ranging from 1 to 256 μg/mL in 10 mM sodium phosphate (pH 7.4), was incubated at 37°C for 2 h with E. coli or S. aureus at 1 × 10^6 CFU/mL (a total volume of 100 μL), followed by the addition of 100 μL of twice-concentrated Mueller-Hinton broth (MHB). In addition to […] controls containing no cryptdin, a negative control termed “input” consisted of a portion of the same cell suspension kept on ice during the initial 2 h of incubation and added to the microplate just before addition of 100 μL of twice-concentrated MHB. Kinetic measurements of bacterial growth at 37°C were taken every 5 min over the next 12 h spectrophotometrically at 650 nm using a Tecan Spark plate reader. Data analysis utilized a Visual Basic script to automate the determination of the time necessary for each growth curve to reach a threshold change in optical density at 650 nm of 0.02 (ΔOD650), as previously described ([67]). Since the threshold times are inversely and linearly dependent on the logarithmic concentration of bacteria ([67]), survival data can be readily inferred from these calibration curves established in the absence of cryptdin. The rate of survival was calculated as the number of CFU of cryptdin-treated cells/number of CFU of control cells.

[3] = test system: E. coli ATCC 25922; test: virtual colony count (vCC) bactericidal assay, E. coli; format: cell-based, Escherichia coli
Method: as §1, §2

[4] = dynamic light scattering (DLS) particle size / self-association in solution; format: physicochemical; settings: DLS number distribution, equilibrated 120 s, room temperature, Malvern Zetasizer, representative
Method: For verification, we subjected the four cryptdin peptides at 10 μM to dynamic light scattering (DLS) analysis in phosphate saline buffers at pH 7.4 and pH 3.0. […] However, the particle sizes of Crp1 and Crp11 shifted dramatically at the elevated pH, to ~200 nm and >1,000 nm, respectively, indicative of formation of high-ordered soluble aggregates in solution. These DLS data are in qualitative agreement with the SPR findings.
Of note, Cryp1 and Cryp11 are among the weakest cryptdins against E. coli and S. aureus, whereas Cryp4 and Cryp14 are potently bactericidal. This phenomenon raised an intriguing possibility that the ability of cryptdins to self-associate in solution could perhaps inform their antibacterial activity.
Dynamic light scattering (DLS) is a technique that can be used to measure the hydrodynamic diameter of proteins in solution. The principle of this technique lies in the fact that the apparent size of a protein molecule is inversely related to the speed at which it diffuses in a constant, random Brownian motion; size information can be derived mathematically through deconvolution algorithms once the rate at which the intensity of scattered laser light fluctuates as a function of time is determined by DLS ([93]). […]

[5] = virtual lethal dose killing 90% of input cells, 2 h at 37°C in 10 mM sodium phosphate pH 7.4, three independent assays

Crp1: mouse α-defensin cryptdin isoform 1, chemically synthesized and oxidatively folded, three disulfides (LRDLVCYCRSRGCKGRERMNGTCRKGHLLYTLCCR; disulfide 13-33, 8-23, 6-34; not fully specified; UniProt P11477 59-93, looked up)
self-association/dissociation kinetics by SPR [1]: slow association, followed by slow dissociation kinetics
concentration at which S. aureus was completely killed / growth eliminated ([2]; vCC survival curves, 2-fold dilution series, mean of triplicate experiments): 32 µg/mL
Mean vLD ± SD, S. aureus ATCC 29213, vLD50 ([2]; virtual lethal dose killing 50% of input cells, 2 h at 37°C in 10 mM sodium phosphate pH 7.4, 1 × 10^6 CFU/mL, three independent assays): 3.9 ± 0.6 µg/mL
Mean vLD ± SD, S. aureus ATCC 29213, vLD90 [2, 5]: 6.1 ± 0.5 µg/mL
Mean vLD ± SD, S. aureus ATCC 29213, vLD99 ([2]; virtual lethal dose killing 99% of input cells, 2 h at 37°C in 10 mM sodium phosphate pH 7.4, three independent assays): 9.1 ± 0.3 µg/mL
Mean vLD ± SD, S. aureus ATCC 29213, vLD99.9 ([2]; virtual lethal dose killing 99.9% of input cells, 2 h at 37°C in 10 mM sodium phosphate pH 7.4, three independent assays): 11.9 µg/mL and 11.9 ± 0.5 µg/mL
reduction of E. coli survival ([3]; peptide at 256 μg/mL, vCC): 5 orders of magnitude
Mean vLD ± SD, E. coli ATCC 25922, vLD50 ([3]; virtual lethal dose killing 50% of input cells, 2-fold dilutions 1-256 μg/mL, 2 h at 37°C in 10 mM sodium phosphate pH 7.4, 1 × 10^6 CFU/mL, then MHB growth 12 h read at 650 nm, three independent assays): 5.9 ± 0.3 µg/mL
Mean vLD ± SD, E. coli ATCC 25922, vLD90 [3, 5]: 13.4 ± 0.6 µg/mL
Mean vLD ± SD, E. coli ATCC 25922, vLD99 ([3]; virtual lethal dose killing 99% of input cells, 2 h at 37°C in 10 mM sodium phosphate pH 7.4, three independent assays, LOD = limit of detection): 25.4 ± 2.3 µg/mL
Mean vLD ± SD, E. coli ATCC 25922, vLD99.9 ([3]; virtual lethal dose killing 99.9% of input cells, 2 h at 37°C in 10 mM sodium phosphate pH 7.4, three independent assays, LOD = limit of detection): 41.9 ± 4.8 µg/mL
particle size in diameter by DLS, pH 3.0 ([4]; 10 μM peptide in phosphate saline buffer pH 3.0, filtered 0.22 μm disc membrane): around 1 nm
particle size in diameter by DLS, pH 7.4 ([4]; 10 μM peptide in phosphate saline buffer pH 7.4, filtered 0.22 μM disc membrane): ~ 200 nm

Reference: PMC9872612, “Mouse α-Defensins: Structural and Functional Analysis of the 17 Cryptdin Isoforms Identified from a Single Jejunal Crypt” (Infection and Immunity, 2022)
